# Measurements: BindingDB's records for patent US20250099442 (Prothena Biosciences, 2025)
# pIC50: −log10 of the molar value.
# Target: Dual specificity tyrosine-phosphorylation-regulated kinase 1A (Homo sapiens, UniProt Q13627)
# Test: DYRK1A Inhibition Assay
# Procedure: Assay Procedure1. Add 5 μL enzyme & substrate mixture to each well in Column 2-23 and A24-H24 wells of the 384-well assay plate;2. Add 5 μL 0% Phosphorylation control to A1-H1 and I24-P24 wells of the assay plate;3. Add 5 μL 100% Phosphorylation control to I1-P1 wells of the assay plate;4. Spin the assay plate (1000 rpm, 1 minute @23° C.);5. Incubate enzyme with compounds for 15 minutes at 23° C.;6. Add 5 μL ATP solution to each well of the assay plate;7. Spin the plate (1000 rpm, 1 minute @23° C.);8. Incubate the assay plate for 90 minutes at 23° C.;9. Add 10 μL Development reagent A to each well of the assay plate;10. Centrifuge the plate at 1000 rpm about 15 seconds and seal a film over assay plate. Incubate the assay plate for 30 minutes at 23° C.11. Read assay plates on Envision
row,pIC50,SMILES
1,6.00 to 7.00,"Cn1ncc2ccc(-c3cncc(O[C@@H]4Cc5ccccc5[C@@H]4N)c3)cc21 [US20250099442, Compound I.37]"
2,7.00 to 8.00,"CC(=O)N1CCC(n2cnc3ccc(-c4ccncc4)cc32)CC1 [US20250099442, Compound I.38]"
3,6.00 to 7.00,"O=S(=O)(c1ccc(F)cc1)N1CCCC(n2cnc3ccc(-c4ccncc4)cc32)C1 (configuration not stated) [US20250099442, Compound I.39]"
4,> 8.00,"CN1CCC(C(=O)Nc2cn3cc(-c4ccncc4)ccc3n2)CC1 [US20250099442, Compound I.42]"
5,7.00 to 8.00,"COc1cc(-c2ccc3nc(NC(=O)C4C5CC4CN(C)C5)sc3c2)ccn1 (configuration not stated) [US20250099442, Compound I.43]"
6,7.00 to 8.00,"CN1CC(C(=O)Nc2nc3ccc(-c4ccncc4)cc3s2)C1 [US20250099442, Compound I.45]"
7,7.00 to 8.00,"COc1cc(-c2ccc3nc(NC(=O)C4CN(C)C4)sc3c2)ccn1 [US20250099442, Compound I.46]"
8,6.00 to 7.00,"c1cc(-c2ccc3nc4n(c3c2)CCNC4)ccn1 [US20250099442, Compound I.48]"
9,7.00 to 8.00,"CN1CCC(N2CCn3c(nc4ccc(-c5ccncc5)cc43)C2)CC1 [US20250099442, Compound I.49]"
10,< 6.00,"CN1CCn2c(nc3ccc(-c4ccncc4)cc32)C1 [US20250099442, Compound I.50]"
11,> 8.00,"CN1CCC(C(=O)Nc2nc3ccc(-c4ccncc4)nc3s2)CC1 [US20250099442, Compound I.51]"
12,7.00 to 8.00,"CN1CCC(C(=O)Nc2cc(-c3cc(=O)n(C)c4ccccc34)ccn2)CC1 [US20250099442, Compound I.55]"
13,6.00 to 7.00,"CN1CCC(C(=O)Nc2cc(-c3cc(Cl)cc4ncccc34)ccn2)CC1 [US20250099442, Compound I.56]"
14,6.00 to 7.00,"Cc1cc(-c2ccnc(NC(=O)C3CCN(C)CC3)c2)c2ocnc2c1 [US20250099442, Compound I.57]"
15,7.00 to 8.00,"CN1CCC(C(=O)Nc2cc3cc(-c4ccncc4)cn3cn2)CC1 [US20250099442, Compound I.58]"
16,7.00 to 8.00,"CN1CCC(C(=O)Nc2cn3cc(-c4ccncc4)cc3cn2)CC1 [US20250099442, Compound I.59]"
17,7.00 to 8.00,"COc1cc(-c2ccnc(NC(=O)C3CCN(C)CC3)c2)cc2cnccc12 [US20250099442, Compound I.60]"
18,6.00 to 7.00,"CCOc1cc(-c2ccc3nc(NC(=O)[C@H]4CCCN(C)C4)sc3c2)ccn1 [US20250099442, Compound I.61]"
19,7.00 to 8.00,"O=C(Nc1cc2cc(-c3ccncc3)cn2cn1)C1CCOCC1 [US20250099442, Compound I.63]"
20,7.00 to 8.00,"CN1CCC(C(=O)N2CCn3c(nc4ccc(-c5ccncc5)cc43)C2)CC1 [US20250099442, Compound I.64]"
21,7.00 to 8.00,"C[C@@H]1CC(C(=O)Nc2cn3cc(-c4ccncc4)ccc3n2)C[C@H](C)N1 (some centres not stated) [US20250099442, Compound I.65]"
22,7.00 to 8.00,"C[C@@H]1CC(C(=O)Nc2cn3cc(-c4ccncc4)ccc3n2)C[C@H](C)N1C (some centres not stated) [US20250099442, Compound I.66]"
23,> 8.00,"CN1CCC(C(=O)Nc2ccc3c(-c4ccncc4)c[nH]c3n2)CC1 [US20250099442, Compound I.67]"
24,> 8.00,"CN1C2CCC1CC(C(=O)Nc1nc3ccc(-c4ccncc4)nc3s1)C2 (configuration not stated) [US20250099442, Compound I.69]"
25,6.00 to 7.00,"CN1C[C@@H]2C(C(=O)Nc3nc4ccc(-c5cccnc5)nc4s3)[C@@H]2C1 (some centres not stated) [US20250099442, Compound I.70]"
26,> 8.00,"COc1cc(-c2ccc3nc(NC(=O)c4cccc(C#N)c4)sc3n2)ccn1 [US20250099442, Compound I.71]"

row,pIC50,SMILES
1,7.00 to 8.00,"CN1CC2C(C1)C2C(=O)Nc1cc2cc(-c3ccncc3)cn2cn1 (configuration not stated) [US20250099442, Compound I.72]"
2,7.00 to 8.00,"Cc1c(-c2ccncc2)cn2cnc(NC(=O)C3[C@H]4CN(C)C[C@@H]34)cc12 (some centres not stated) [US20250099442, Compound I.73]"
3,7.00 to 8.00,"Cc1c(-c2ccncc2)cn2cnc(NC(=O)C3C4CNCC43)cc12 (configuration not stated) [US20250099442, Compound I.74]"
4,7.00 to 8.00,"Cc1c(C#CC2CCOCC2)nc2ccc(-c3ccncc3)cn12 [US20250099442, Compound I.76]"
5,6.00 to 7.00,"O=C(O)c1ccc(-c2cnc3n2CCN(c2cccnc2)C3)cc1 [US20250099442, Compound I.78]"
6,6.00 to 7.00,"Cc1cc(-c2cnn3cc(-c4ccc5cnccc5c4)n(C)c(=O)c23)ccn1 [US20250099442, Compound I.80]"
7,< 6.00,"O=C(O)c1ccc(-c2cnc3n2CC(=O)N(C2CCOCC2)C3)cc1 [US20250099442, Compound I.81]"
8,< 6.00,"COc1ccc(CN2Cc3ncc(-c4ccc(C#N)cc4)n3CC2=O)cc1 [US20250099442, Compound I.82]"
9,6.00 to 7.00,"c1cc(-c2ccc3ncsc3c2)c(OC2CCC2)cn1 [US20250099442, Compound I.83]"
10,7.00 to 8.00,"Cc1cc(-c2cn3ncc(-c4ccc(O)c(C#N)c4)c3c(=O)n2C)ccn1 [US20250099442, Compound I.84]"
11,7.00 to 8.00,"CCCOc1cc(COC2CCN(C)CC2)nc2[nH]cc(-c3ccncc3)c12 [US20250099442, Compound I.85]"
12,6.00 to 7.00,"c1cncc(-c2ccc3cncc(OC4CCNC4)c3c2)c1 (configuration not stated) [US20250099442, Compound I.87]"
13,6.00 to 7.00,"CN1CCC(Oc2cnc3[nH]cc(-c4cc[nH]c(=O)c4)c3n2)C1 (configuration not stated) [US20250099442, Compound I.88]"
14,< 6.00,"CN1CCC(C2CN(c3ncc(-c4ccncc4)c4c3C(=O)NC4)C2)CC1 [US20250099442, Compound I.89]"
15,> 8.00,"CN1CCC(C#Cc2cc(-c3cn(C4CCOCC4)c4cnccc34)ccn2)CC1 [US20250099442, Compound I.91]"
16,> 8.00,"C(#CC1CCOCC1)c1cc(-c2cn(C3CCOCC3)c3cnccc23)ccn1 [US20250099442, Compound I.92]"
17,7.00 to 8.00,"CCN1CCC(C(=O)Nc2cc(-c3ccc4ncn(C(F)F)c4c3)ccn2)CC1 [US20250099442, Compound I.93]"
18,< 6.00,"CCN1CCC(C(=O)Nc2cc(-c3ccc4c(c3)ncn4C(F)F)ccn2)CC1 [US20250099442, Compound I.94]"
19,6.00 to 7.00,"OC1(C#Cc2ccc3c(-c4ccncc4)c[nH]c3n2)CCNCC1 [US20250099442, Compound I.95]"
20,6.00 to 7.00,"CC(C)CN1CCC(O)(C#Cc2ccc3c(-c4ccncc4)c[nH]c3n2)CC1 [US20250099442, Compound I.96]"
21,7.00 to 8.00,"CC(C)CN1CCC(C#Cc2nc3ccc(-c4ccnc(N)c4)nc3n2C2CC2)CC1 [US20250099442, Compound I.99]"
22,7.00 to 8.00,"CC(C)CN1CCC(C#Cc2cc(-c3cn(C4CCOCC4)c4cnccc34)ccn2)CC1 [US20250099442, Compound I.100]"
23,7.00 to 8.00,"CN1CCC(C(=O)Nc2ncc(-c3ccc4ncn(C)c4c3)s2)CC1 [US20250099442, Compound I.102]"
24,> 6.30,"CCCOc1cc(COC2CCN(C)CC2)nc2[nH]cc(C(F)(F)F)c12 [US20250099442, Compound II.7]"
25,> 6.30,"CC(=O)Nc1ccc2cnc(NC(=O)C3CCN(C)CC3)cc2c1 [US20250099442, Compound II.22]"

row,SMILES,pIC50
1,"CN1CC2CC(C1)C2C(=O)Nc1nc2ccc(-c3ccncc3)cc2s1 (configuration not stated) [US20250099442, Compound I.52]",6.00 to 7.00
